Data reported in ChEMBL document CHEMBL1201862, “PubChem BioAssay data set” (2004).
Calls of active or inactive are those of the source. No stated cut-off is given here; in the data, actives have a measured IC50 and inactives only a lower limit.

Target: Envelope glycoprotein gp160 (Human immunodeficiency virus 1, UniProt Q6QLK5)
Assay: inhibitors of HIV fusion peptide binding, primary screen, biochemical, uHTS, fluorescence dequenching (AID 1986)

Envelope glycoprotein gp160, sequence (Q6QLK5 whole entry, the tested form may be a part): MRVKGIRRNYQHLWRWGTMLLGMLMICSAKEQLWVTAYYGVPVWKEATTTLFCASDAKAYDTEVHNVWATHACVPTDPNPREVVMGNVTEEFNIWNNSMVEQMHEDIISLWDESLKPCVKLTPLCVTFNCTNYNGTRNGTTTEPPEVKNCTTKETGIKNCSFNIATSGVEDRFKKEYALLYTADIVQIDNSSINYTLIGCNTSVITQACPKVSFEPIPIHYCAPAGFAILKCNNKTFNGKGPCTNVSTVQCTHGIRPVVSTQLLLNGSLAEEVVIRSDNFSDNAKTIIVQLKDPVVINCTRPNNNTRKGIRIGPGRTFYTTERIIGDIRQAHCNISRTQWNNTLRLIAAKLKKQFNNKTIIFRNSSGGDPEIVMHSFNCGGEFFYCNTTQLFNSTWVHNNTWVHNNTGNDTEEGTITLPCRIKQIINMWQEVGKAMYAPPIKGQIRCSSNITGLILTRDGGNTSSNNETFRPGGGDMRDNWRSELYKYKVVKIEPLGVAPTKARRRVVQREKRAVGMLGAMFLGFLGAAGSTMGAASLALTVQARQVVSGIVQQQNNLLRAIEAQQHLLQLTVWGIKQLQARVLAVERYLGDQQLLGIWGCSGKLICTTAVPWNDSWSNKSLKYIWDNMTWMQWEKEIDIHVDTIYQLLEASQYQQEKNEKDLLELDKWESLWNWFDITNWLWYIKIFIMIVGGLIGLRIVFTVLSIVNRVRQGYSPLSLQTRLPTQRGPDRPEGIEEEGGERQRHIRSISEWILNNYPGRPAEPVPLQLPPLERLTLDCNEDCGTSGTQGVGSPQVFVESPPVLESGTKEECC

**Q.** For CCc1nnc(NS(=O)(=O)c2ccc(NC(=S)NC(=O)/C=C/c3cccs3)cc2)s1, which IC50 is on record?
**A.** 22.6 µM (active)
